According to patent EP0207497A2, “Quinolonecarboxylic acid derivative and process for its preparation” (KYORIN PHARMACEUTICAL CO., LTD., priority 1985, dated 1987):
≈ marks a conversion by molar mass, not a printed value.

Assays:
Type in all cases: cell-based
[1] = tested on: Bacillus subtilis PCI 219; assay: Antibacterial spectrum, MIC determination (method of Japan Society of Chemotherapy); conditions: PCI219; Bacillus subtilis PCI 219, Gram +, 10^6 cells/ml; read-out: MIC
[2] = tested on: S. aureus IID 670 (Terajima); assay: as above; conditions: Staphylococcus aureus, IID670; S. aureus IID 670 (Terajima), Gram +, 10^6 cells/ml; read-out: MIC
S. epidermidis IID 866 = assay: as above; conditions: Staphylococcus epidermidis, IID866; S. epidermidis IID 866, Gram +, 10^6 cells/ml; read-out: MIC
S. pyogenes IID 692 = assay: as above; conditions: Streptococcus pyogenes, IID692; S. pyogenes IID 692, Gram +, 10^6 cells/ml
S. pneumoniae IID 552 = assay: as above; conditions: Streptococcus pneumoniae, IID552; S. pneumoniae IID 552, Gram +, 10^6 cells/ml
E. faecalis IID 682 = assay: as above; conditions: Enterococcus faecalis, IID682; E. faecalis IID 682, Gram +, 10^6 cells/ml
E. coli ML 4707 = assay: as above; conditions: Escherichia coli, ML4707; E. coli ML 4707, Gram -, 10^6 cells/ml; read-out: MIC
P. mirabilis IID 994 = assay: as above; conditions: Proteus mirabilis, IID994; P. mirabilis IID 994, Gram -, 10^6 cells/ml; read-out: MIC
[3] = tested on: Klebsiella pneumoniae KY(GN)6445; assay: as above; conditions: Klebsiella pneumoniae KY(GN)6445, Gram -, 10^6 cells/ml; read-out: MIC
K. pneumoniae 1-220S = assay: as above; conditions: Klebsiella pneumoniae, 1220S; K. pneumoniae 1-220S, Gram -, 10^6 cells/ml; read-out: MIC
[4] = tested on: Citrobacter freundii IID 976; assay: as above; conditions: IID976; Citrobacter freundii IID 976, Gram -, 10^6 cells/ml; read-out: MIC
[5] = tested on: Pseudomonas aeruginosa V-1; assay: as above; conditions: V1; Pseudomonas aeruginosa V-1, Gram -, 10^6 cells/ml
P. aeruginosa IFO 12689 = assay: as above; conditions: Pseudomonas aeruginosa, IFO12689; P. aeruginosa IFO 12689, Gram -, 10^6 cells/ml
P. aeruginosa IID 1210 = assay: as above; conditions: Pseudomonas aeruginosa, IID1210; P. aeruginosa IID 1210, Gram -, 10^6 cells/ml
P. cepacia GIFU 518 = assay: as above; conditions: Burkholderia cepacia, GIFU518; P. cepacia GIFU 518, Gram -, 10^6 cells/ml; read-out: MIC
P. maltophilia GIFU 2491 = assay: as above; conditions: Stenotrophomonas maltophilia, GIFU2491; P. maltophilia GIFU 2491, Gram -, 10^6 cells/ml; read-out: MIC
[6] = tested on: Yersinia enterocolitica IID 981; assay: as above; conditions: IID981; Yersinia enterocolitica IID 981, Gram -, 10^6 cells/ml; read-out: MIC
[7] = tested on: Acinetobacter anitratus IID 876; assay: as above; conditions: Acinetobacter calcoaceticus, IID876; Acinetobacter anitratus IID 876, Gram -, 10^6 cells/ml; read-out: MIC
[8] = tested on: Alcaligenes faecalis 0114002; assay: as above; conditions: Alcaligenes faecalis 0114002, Gram -, 10^6 cells/ml
[9] = tested on: Bacteroides fragilis GM 7000; assay: as above; conditions: GM7000; Bacteroides fragilis GM 7000, Gram -, 10^6 cells/ml; read-out: MIC
B. fragilis 0558 = assay: as above; conditions: Bacteroides fragilis; B. fragilis 0558, Gram -, 10^6 cells/ml; read-out: MIC
B. fragilis 25285 = assay: as above; conditions: Bacteroides fragilis; B. fragilis 25285, Gram -, 10^6 cells/ml; read-out: MIC
[10] = tested on: B. thetaiotaomicron (0661); assay: as above; conditions: Bacteroides thetaiotaomicron; B. thetaiotaomicron (0661), Gram -, 10^6 cells/ml; read-out: MIC
B. vulgatus KYA 29327 = assay: as above; conditions: Phocaeicola vulgatus, KYA29327; B. vulgatus KYA 29327, Gram -, 10^6 cells/ml; read-out: MIC
[11] = tested on: Fusobacterium mortiferum 4249; assay: as above; conditions: Fusobacterium mortiferum 4249, Gram -, 10^6 cells/ml; read-out: MIC
[12] = tested on: Propionibacterium acens 11828; assay: as above; conditions: Propionibacterium acens 11828, Gram +, 10^6 cells/ml; read-out: MIC
[13] = tested on: Clostridium difficile I-E; assay: as above; conditions: Clostridioides difficile, Gram +, 10^6 cells/ml
C. perfringens KYA 13123 = assay: microbe, parasite or virus in culture; conditions: Clostridium perfringens, KYA13123
C. ramosum = assay: Antibacterial spectrum, MIC determination (method of Japan Society of Chemotherapy); conditions: Thomasclavelia ramosa; C. ramosum, Gram +, 10^6 cells/ml; read-out: MIC
[14] = tested on: Peptostreptococcus anaerobius KYA 27337; assay: as above; conditions: KYA27337; Peptostreptococcus anaerobius KYA 27337, Gram +, 10^6 cells/ml; read-out: MIC
Pst. micros UPI 5464-1 = assay: as above; conditions: Parvimonas micra, UPI54641; Pst. micros UPI 5464-1, Gram +, 10^6 cells/ml

NC1CCN(c2c(F)cc3c(=O)c(C(=O)O)cn(C4CC4)c3c2Br)C1 (stereo not shown) [Exp. 1, 7-(3-Amino-1-pyrrolidinyl)-8-bromo-1-cyclopropyl-6-fluoro-1,4-dihydro-4-oxo-3-quinolinecarboxylic acid]
MIC [1]: 0.025 µg/mL (≈ 0.0609 µM)
MIC [2]: 0.05 µg/mL (≈ 0.122 µM)
MIC (S. epidermidis IID 866): 0.1 µg/mL (≈ 0.244 µM)
MIC (S. pyogenes IID 692): 0.2 µg/mL (≈ 0.488 µM)
MIC (S. pneumoniae IID 552): 0.1 µg/mL (≈ 0.244 µM)
MIC (E. faecalis IID 682): 0.1 µg/mL (≈ 0.244 µM)
MIC (E. coli ML 4707): 0.0125 µg/mL (≈ 0.0305 µM)
MIC (P. mirabilis IID 994): 0.0125 µg/mL (≈ 0.0305 µM)
MIC [3]: 0.0125 µg/mL (≈ 0.0305 µM)
MIC (K. pneumoniae 1-220S): 0.025 µg/mL (≈ 0.0609 µM)
MIC [4]: 0.025 µg/mL (≈ 0.0609 µM)
MIC [5]: 0.2 µg/mL (≈ 0.488 µM)
MIC (P. aeruginosa IFO 12689): 0.39 µg/mL (≈ 0.951 µM)
MIC (P. aeruginosa IID 1210): 0.78 µg/mL (≈ 1.9 µM)
MIC (P. cepacia GIFU 518): 0.39 µg/mL (≈ 0.951 µM)
MIC (P. maltophilia GIFU 2491): 0.05 µg/mL (≈ 0.122 µM)
MIC [6]: 0.025 µg/mL (≈ 0.0609 µM)
MIC [7]: 0.05 µg/mL (≈ 0.122 µM)
MIC [8]: 0.1 µg/mL (≈ 0.244 µM)
MIC [9]: 0.1 µg/mL (≈ 0.244 µM)
MIC (B. fragilis 0558): 0.1 µg/mL (≈ 0.244 µM)
MIC (B. fragilis 25285): 0.1 µg/mL (≈ 0.244 µM)
MIC [10]: 0.2 µg/mL (≈ 0.488 µM)
MIC (B. vulgatus KYA 29327): 0.2 µg/mL (≈ 0.488 µM)
MIC [11]: 0.2 µg/mL (≈ 0.488 µM)
MIC [12]: 1.56 µg/mL (≈ 3.8 µM)
MIC [13]: 0.78 µg/mL (≈ 1.9 µM)
MIC (C. perfringens KYA 13123): 0.2 µg/mL (≈ 0.488 µM)
MIC (C. ramosum): 1.56 µg/mL (≈ 3.8 µM)
MIC [14]: 0.2 µg/mL (≈ 0.488 µM)
MIC (Pst. micros UPI 5464-1): 0.1 µg/mL (≈ 0.244 µM)
